Values of other authors, collected in US6339092B1, “Metalloprotease inhibitors” (Adir et Compagnie, priority 1999, dated 2002).

Tested on: ovarian cancers
Conditions: Becket el al., DDT 1996; cited from earlier work

SMILES: CNC(=O)[C@H](Cc1ccccc1)NC(=O)[C@H](CC(C)C)[C@H](CSc1cccs1)C(=O)NO [BB94]
- anti-tumour activity in clinical use: active against ovarian cancers
